According to ChEMBL document CHEMBL1201862, “PubChem BioAssay data set” (2004):
Activity calls are given as the source filed them.

Experiments:
Type in all cases: functional
Ion channel NompC = Ion channel NompC (Danio rerio, UniProt Q7T1G6); assay: Fluorescence counterscreen assay for TRPML3 agonists: dose response cell-based high-throughput screening assay to identify agonists of the transient receptor potential channel N1 (TRPN1). [Related pubchem assays: 1526, 1424, 1448 ]
Mucolipin-3 = Mucolipin-3 (Homo sapiens, UniProt Q8TDD5); assay: Dose response cell-based high-throughput screening assay for agonists of the transient receptor potential channel ML3 (TRPML3). [Related pubchem assays: 1526, 1424, 1448 ]
Mucolipin-3, sequence (Q8TDD5 whole entry): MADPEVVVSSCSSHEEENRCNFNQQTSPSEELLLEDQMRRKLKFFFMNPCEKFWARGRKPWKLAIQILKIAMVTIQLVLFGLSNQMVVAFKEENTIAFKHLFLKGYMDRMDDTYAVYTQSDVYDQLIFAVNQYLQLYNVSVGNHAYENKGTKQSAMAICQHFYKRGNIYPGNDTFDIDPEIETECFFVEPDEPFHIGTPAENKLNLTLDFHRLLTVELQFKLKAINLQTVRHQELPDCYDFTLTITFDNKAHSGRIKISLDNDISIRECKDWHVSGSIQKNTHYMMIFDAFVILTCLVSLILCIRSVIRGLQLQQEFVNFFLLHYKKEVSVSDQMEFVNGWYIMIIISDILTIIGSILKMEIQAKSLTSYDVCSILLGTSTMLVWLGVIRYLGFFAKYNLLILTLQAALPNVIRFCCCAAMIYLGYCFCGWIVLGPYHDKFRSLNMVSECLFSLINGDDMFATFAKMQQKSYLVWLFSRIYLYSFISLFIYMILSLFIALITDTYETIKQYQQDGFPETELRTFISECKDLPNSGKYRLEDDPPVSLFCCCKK

[1] = biological target: Sphingosine 1-phosphate receptor 1 (Homo sapiens, UniProt P21453);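 further: Tango beta-arrestin reporter U2OS cells stimulated with S1P near its EC80; inhibitor potency meaning antagonism of receptor activation by the natural agonist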
Sphingosine 1-phosphate receptor 1, sequence (P21453 whole entry): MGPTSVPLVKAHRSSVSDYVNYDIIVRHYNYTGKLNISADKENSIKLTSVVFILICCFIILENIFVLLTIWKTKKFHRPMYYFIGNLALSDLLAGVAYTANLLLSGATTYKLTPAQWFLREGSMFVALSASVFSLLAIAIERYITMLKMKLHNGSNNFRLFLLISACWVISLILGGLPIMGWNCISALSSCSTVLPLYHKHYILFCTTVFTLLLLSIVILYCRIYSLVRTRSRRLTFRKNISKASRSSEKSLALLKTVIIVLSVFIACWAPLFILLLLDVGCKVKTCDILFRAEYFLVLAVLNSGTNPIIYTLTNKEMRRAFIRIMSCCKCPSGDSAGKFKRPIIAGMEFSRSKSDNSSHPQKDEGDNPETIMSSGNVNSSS

[2] = growth suppression of PTEN-null colon cells, dose response, cell-based, HCT116 PTEN knockout (AID 1047);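 further: HCT116 colon tumor cells with PTEN knocked out; cells exposed to compound for 60 hours before readout; potency for loss of cell viability measured by luminescence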
[3] = growth suppression of beta-catenin-knockout colon cells, dose response, cell-based, HCT116, human colon tumor (AID 1045);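 further: HCT116 colon tumor cells with beta catenin knocked out; cells exposed to compound for 60 hours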
[4] = biological target: T1, Sphingosine 1-phosphate receptor 4 (Homo sapiens, UniProt O95977); assay: Fluorescence dose response cell-based high throughput screening assay for antagonists of the Sphingosine 1-Phosphate Receptor 4 (S1P4). [Related pubchem assays: 1524 (Confirmation in triplicates.), 1510 (Primary screen.)]
T1 sequence (O95977 whole entry): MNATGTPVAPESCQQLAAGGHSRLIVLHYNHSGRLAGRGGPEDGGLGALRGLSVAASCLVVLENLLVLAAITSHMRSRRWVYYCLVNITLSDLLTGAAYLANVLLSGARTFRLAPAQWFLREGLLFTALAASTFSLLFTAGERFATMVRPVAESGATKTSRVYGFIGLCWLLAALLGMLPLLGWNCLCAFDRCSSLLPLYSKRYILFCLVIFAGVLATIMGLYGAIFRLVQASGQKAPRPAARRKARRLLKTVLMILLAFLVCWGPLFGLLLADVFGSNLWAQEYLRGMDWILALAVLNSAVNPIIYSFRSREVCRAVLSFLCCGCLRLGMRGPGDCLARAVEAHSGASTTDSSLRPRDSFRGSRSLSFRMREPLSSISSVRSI

[5] = biological target: T1, Sphingosine 1-phosphate receptor 4; assay: Late stage fluorescence dose response cell-based screening assay for antagonists of the Sphingosine 1-Phosphate Receptor 4 (S1P4). [Related pubchem assays: 1524 (Confirmation screen (S1P4 antagonists).), 1510 (Primary screen (S1P4 antagonists).), 1853 (Summary AID (S1P4 antagonists).), 1692 (Dose response screen (S1P4 antagonists).)]

Ion channel NompC, sequence (Q7T1G6 whole entry): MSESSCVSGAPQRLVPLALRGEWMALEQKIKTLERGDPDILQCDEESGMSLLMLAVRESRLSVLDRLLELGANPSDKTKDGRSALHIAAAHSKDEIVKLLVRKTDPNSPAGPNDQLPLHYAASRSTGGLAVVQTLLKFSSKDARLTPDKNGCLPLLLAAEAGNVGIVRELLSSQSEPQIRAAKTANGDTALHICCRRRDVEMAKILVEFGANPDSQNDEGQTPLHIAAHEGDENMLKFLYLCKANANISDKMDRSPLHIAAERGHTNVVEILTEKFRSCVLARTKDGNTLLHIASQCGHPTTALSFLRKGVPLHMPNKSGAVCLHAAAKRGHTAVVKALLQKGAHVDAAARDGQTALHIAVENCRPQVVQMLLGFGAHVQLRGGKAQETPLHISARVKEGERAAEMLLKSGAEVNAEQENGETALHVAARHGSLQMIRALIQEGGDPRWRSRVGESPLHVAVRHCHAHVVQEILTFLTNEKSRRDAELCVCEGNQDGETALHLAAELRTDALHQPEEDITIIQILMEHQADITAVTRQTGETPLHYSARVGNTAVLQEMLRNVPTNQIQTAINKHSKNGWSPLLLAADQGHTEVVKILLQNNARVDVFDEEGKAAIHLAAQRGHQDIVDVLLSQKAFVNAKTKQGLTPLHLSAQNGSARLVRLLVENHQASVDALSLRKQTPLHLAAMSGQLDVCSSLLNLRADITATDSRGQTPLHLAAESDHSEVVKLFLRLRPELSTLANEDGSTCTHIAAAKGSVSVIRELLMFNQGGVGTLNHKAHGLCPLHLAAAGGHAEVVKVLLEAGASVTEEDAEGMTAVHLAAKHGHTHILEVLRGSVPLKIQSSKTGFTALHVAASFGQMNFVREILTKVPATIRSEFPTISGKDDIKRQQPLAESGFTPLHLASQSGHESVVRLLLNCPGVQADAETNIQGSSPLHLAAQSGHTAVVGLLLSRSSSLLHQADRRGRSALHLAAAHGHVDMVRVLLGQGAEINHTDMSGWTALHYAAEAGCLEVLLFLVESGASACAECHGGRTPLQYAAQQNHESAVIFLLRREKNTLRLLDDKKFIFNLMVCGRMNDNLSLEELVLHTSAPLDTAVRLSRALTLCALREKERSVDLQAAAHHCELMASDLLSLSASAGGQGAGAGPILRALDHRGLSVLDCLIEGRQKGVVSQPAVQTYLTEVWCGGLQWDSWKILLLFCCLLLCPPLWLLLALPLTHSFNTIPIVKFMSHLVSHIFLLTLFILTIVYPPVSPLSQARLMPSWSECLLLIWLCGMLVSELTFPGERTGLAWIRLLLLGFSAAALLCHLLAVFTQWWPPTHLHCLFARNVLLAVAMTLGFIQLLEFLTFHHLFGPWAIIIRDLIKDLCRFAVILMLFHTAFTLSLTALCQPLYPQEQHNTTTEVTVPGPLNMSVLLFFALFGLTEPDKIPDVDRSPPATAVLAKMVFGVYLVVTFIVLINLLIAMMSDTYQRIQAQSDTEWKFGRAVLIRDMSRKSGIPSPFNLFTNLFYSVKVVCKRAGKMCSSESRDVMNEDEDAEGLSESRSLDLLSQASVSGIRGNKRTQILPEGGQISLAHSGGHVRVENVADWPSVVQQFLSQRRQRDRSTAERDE

SMILES | EC50 (Ion channel NompC) | EC50 (Mucolipin-3) | IC50 [1] | EC50 [2] | EC50 [3] | IC50 [4] | IC50 [5]
CCN(CC)C(=S)SCC(=O)NC12CC3CC(CC(C3)C1)C2 | > 29.9 µM (not active) | 14.7 µM (not active) |  |  |  |  | 
O=C(OCn1ncc(Br)c(Br)c1=O)c1c(F)cccc1F |  |  | 7.96 µM (active) | 1.78 µM (active) | 1.82 µM (active) | 0.888 µM (active) | 88.8 µM (not active)
